The target in one assay is T1, Gelatinase (MMP-2) (Homo sapiens, UniProt P08253).
T1 sequence (P08253 110-660): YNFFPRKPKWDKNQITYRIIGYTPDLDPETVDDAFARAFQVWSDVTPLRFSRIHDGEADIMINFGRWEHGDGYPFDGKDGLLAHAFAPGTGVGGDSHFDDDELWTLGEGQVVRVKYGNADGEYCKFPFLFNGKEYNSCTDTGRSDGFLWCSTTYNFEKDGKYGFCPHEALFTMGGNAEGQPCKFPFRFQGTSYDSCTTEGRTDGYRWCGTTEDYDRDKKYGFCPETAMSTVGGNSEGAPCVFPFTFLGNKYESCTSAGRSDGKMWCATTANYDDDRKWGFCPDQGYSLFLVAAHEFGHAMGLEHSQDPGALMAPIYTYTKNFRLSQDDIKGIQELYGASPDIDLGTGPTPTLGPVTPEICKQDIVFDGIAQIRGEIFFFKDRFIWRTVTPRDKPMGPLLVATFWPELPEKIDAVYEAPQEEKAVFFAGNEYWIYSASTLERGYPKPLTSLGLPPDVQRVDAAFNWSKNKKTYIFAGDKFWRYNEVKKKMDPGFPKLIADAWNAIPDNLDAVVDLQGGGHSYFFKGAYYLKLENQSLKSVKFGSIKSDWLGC
Description: Gelatinase (MMP-2) inhibitory activity, fluorogenic peptide substrate assay. The assay is classed as biochemical. As to conditions: substrate 5 μM, 60 min preincubation, 20-25° C.; read-out: MMP2 IC50.

A further assay deals with Collagenase-3 (MMP-13) (Homo sapiens, UniProt P45452). Description: Collagenase-3 (MMP-13) inhibitory activity, fluorogenic peptide substrate assay. The assay is classed as biochemical. To be noted: recombinant pro-collagenase-3 activated with 1 mM APMA; read-out: MMP13 IC50.

Each structure is given as a SMILES string. Some results are limits rather than exact numbers.

Description for Collagenase-3 (MMP-13): (§1) Stock solutions of inhibitors (0.03 mM-3 mM) are also prepared in DMSO. The inhibitors are diluted into the assay solutions, and the controls use an equal volume of DMSO so that the final DMSO concentration from the inhibitor and substrate dilutions in all assays is 1.0%. Assays are performed in an assay buffer (100 mM sodium chloride, 10 μM ZnCl. Sub 2, 10 mM CaCl2, 100 mM Tris-Cl pH7.5, 0.05% Brij-35), containing 1.0% DMSO from the substrate and inhibitor additions. The substrate concentration used in the assays is 5 μM. The assays are carried out at 20-25° C. […] The reaction mixtures are added in duplicate into appropriate wells of a 384-well assay plate. The reaction mixtures are preincubated with the inhibitors for 60 minutes The reactions are started by the addition of MMP substrate, and the fluorescence intensity changes are measured after 60 minutes The apparent enzyme activity in the presence of an inhibitor is then compared with that in the absence of any inhibitor to determine the inhibition effect of the inhibitor.
Collagenase-3 (MMP-13) inhibitory activity is determined as described above. Recombinant pro-collagenase-3 is activated with 1 mM APMA, and stored in the assay buffer after extensive dialysis in the assay buffer.
Description for Gelatinase (MMP-2): as §1

Usually IC50 stands for the concentration at which inhibition is half-maximal. For the compound `CC(C)CCN([C@@H](C(=O)NO)C(C)C)S(=O)(=O)c1ccc2ccc(N)cc2c1` [Example 84, 2-[(7-Amino-naphthalene-2-sulfonyl)-(3-methyl-butyl)-amino]-N-hydroxy-3-methyl-butyramide], the IC50 on Gelatinase (MMP-2) is more than 1000 nM; at Collagenase-3 (MMP-13), 52.1 nM.
In the case of `O=C(NO)[C@H]1CCCN1S(=O)(=O)c1ccc2ccccc2c1` (stereo in doubt) [Example 52, 1-(Naphthalene-2-sulfonyl)-pyrrolidine-2-carboxylic acid hydroxyamide], the IC50 on Gelatinase (MMP-2) was 350 nM; at Collagenase-3 (MMP-13), 293 nM.
As to `CSCC[C@H](C(=O)NO)N(CCC(C)C)S(=O)(=O)c1ccc2ccccc2c1` [Example 20, (R)—N-Hydroxy-2-[(3-methyl-butyl)-(naphthalene-2-sulfonyl)-amino]-4-methylsulfanyl-butyramide], the IC50 on Gelatinase (MMP-2) was 12.1 nM; on Collagenase-3 (MMP-13), 0.3 nM.
For `CC(C)CCN(C(C)(C)C(=O)NO)S(=O)(=O)c1ccc2ccccc2c1` [Example 65, N-Hydroxy-2-methyl-2-[(3-methyl-butyl)-(naphthalene-2-sulfonyl)-amino]-propionamide], in that order: 2860 nM and 2260 nM.
In the case of `CC(=O)N(CCC(C)C)c1ccc2ccc(S(=O)(=O)N(CCC(C)C)[C@@H](C(=O)NO)C(C)C)cc2c1` [Example 71, 2-[{7-[Acetyl-(3-methyl-butyl)-amino]-naphthalene-2-sulfonyl}-(3-methyl-butyl)-amino]-N-hydroxy-3-methyl-butyramide], the IC50 at Gelatinase (MMP-2) and at Collagenase-3 (MMP-13) was more than 30000 nM in each case.
For the compound `CC(C)(C)OC(=O)N1CCC([C@@H](NS(=O)(=O)c2ccc3ccccc3c2)C(=O)NO)CC1` [Example 74, 4-[Hydroxycarbamoyl-(naphthalene-2-sulfonylamino)-methyl]-piperidine-1-carboxylic acid tert-butyl ester], the concentration for half-maximal inhibition (IC50) at Gelatinase (MMP-2) and at Collagenase-3 (MMP-13) was 0.4 nM throughout.
As to `CC(C)CCN([C@@H](C(=O)NO)C(C)C)S(=O)(=O)c1ccc2ccccc2c1O` [Example 1, (R)—N-Hydroxy-2-[(1-hydroxy-naphthalene-2-sulfonyl)-(3-methyl-butyl)-amino]-3-methyl-butyramide], the half-inhibitory concentration (IC50) at Gelatinase (MMP-2) is more than 3000 nM; at Collagenase-3 (MMP-13), 672 nM.
The corresponding values for `CC(=O)Nc1ccc2ccc(S(=O)(=O)N(CCC(C)C)[C@@H](C(=O)NO)C(C)C)cc2c1` [Example 61, 2-[(7-Acetylamino-naphthalene-2-sulfonyl)-(3-methyl-butyl)-amino]-N-hydroxy-3-methyl-butyramide] are 22.8 nM and 0.5 nM.
On to `O=C(NO)[C@H]1[C@@H]2CCCC[C@@H](C2)N1S(=O)(=O)c1ccc2ccccc2c1` [Example 83, 7-(Naphthalene-2-sulfonyl)-7-aza-bicyclo[4.2.1]nonane-8-carboxylic acid hydroxyamide], for which the IC50 turned out to be 770 nM at Gelatinase (MMP-2) and 135 nM on Collagenase-3 (MMP-13).
For `C=CCOc1ccc2cc(S(=O)(=O)N(CCC(C)C)[C@@H](C(=O)NO)C(C)C)ccc2c1` [Example 66, 2-[(6-Allyloxy-naphthalene-2-sulfonyl)-(3-methyl-butyl)-amino]-N-hydroxy-3-methyl-butyramide], in that order: 128 nM and 7.3 nM.
The corresponding values for `CS(=O)(=O)CCC(NS(=O)(=O)c1ccc2ccccc2c1)C(=O)NO` (stereo not shown) [Example 18, N-Hydroxy-4-methanesulfonyl-2-(naphthalene-2-sulfonylamino)-butyramide] are 157 nM and 153 nM.
Take `Cc1ccc2ccc(S(=O)(=O)N(CCC(C)C)[C@@H](C(=O)NO)C(C)C)cc2c1` [Example 85, N-isoamyl-N-(6-methylnaphthalene-2-sulfonyl)-D-valine hydroxamic acid]: the IC50 was determined as 3350 nM on Gelatinase (MMP-2) and 134 nM at Collagenase-3 (MMP-13).
For `CC(C)CCN(C1(C(=O)NO)CCCC1)S(=O)(=O)c1ccc2ccccc2c1` [Example 70, 1-[(3-Methyl-butyl)-(naphthalene-2-sulfonyl)-amino]-cyclopentanecarboxylic acid hydroxyamide], in that order: 940 nM and 212 nM.
For `O=C(NO)[C@H]1CC=CCN1S(=O)(=O)c1cnc2ccccc2c1` [Example 72, (R)-1-(Quinoline-3-sulfonyl)-1,2,3,6-tetrahydro-pyridine-2-carboxylic acid hydroxyamide], in that order: 853 nM and 95.7 nM.
The corresponding values for `O=C(NO)[C@H]1C2CCC(CC2)N1S(=O)(=O)c1ccc2ccccc2c1` [Example 91, (R)-2-(Naphthalene-2-sulfonyl)-2-aza-bicyclo[2.2.2]octane-3-carboxylic acid hydroxyamide] are 22200 nM and 6950 nM.
For the compound `CC(C)[C@H](C(=O)NO)N(CCOc1ccc(Cl)cc1)S(=O)(=O)c1ccc2ccccc2c1` [Example 58, (R)-2-[[2-(4-Chloro-phenoxy)-ethyl]-(naphthalene-2-sulfonyl)-amino]-N-hydroxy-3-methyl-butyramide], the IC50 was 2650 nM on Gelatinase (MMP-2) and 116 nM at Collagenase-3 (MMP-13).
For `CC(C)[C@H](C(=O)NO)N(CCOc1cccc(Cl)c1)S(=O)(=O)c1ccc2ccccc2c1` [Example 62, N-(2-(3-chlorophenoxy)ethyl)-N-(naphthalene-2-sulfonyl)-D-valine hydroxamic acid], in that order: 3890 nM and 138 nM.
For `O=C(NO)[C@H]1CC=C(c2ccccc2)CN1S(=O)(=O)c1ccc2ccccc2c1` [Example 39, (R)-1-(Naphthalene-2-sulfonyl)-5-phenyl-1,2,3,6-tetrahydro-pyridine-2-carboxylic acid hydroxyamide], the IC50 on Gelatinase (MMP-2) was 27.8 nM; at Collagenase-3 (MMP-13), 1.4 nM.
Take `CC(C)CCN([C@H](Cc1ccc(OCc2ccccc2)cc1)C(=O)NO)S(=O)(=O)c1ccc2ccccc2c1` [Example 25, (R)-3-(4-Benzyloxy-phenyl)-N-hydroxy-2-[(3-methyl-butyl)-(naphthalene-2-sulfonyl)-amino]-propionamide]: the IC50 worked out at 1960 nM at Gelatinase (MMP-2) and 44.1 nM at Collagenase-3 (MMP-13).
The corresponding values for `C=CCN([C@@H](C(=O)NO)C(C)C)S(=O)(=O)c1ccc2ccccc2c1` [Example 24, (R)-2-[Allyl-(naphthalene-2-sulfonyl)-amino]-N-hydroxy-3-methyl-butyramide] are 90.4 nM and 3.4 nM.
